In PubChem BioAssay AID1918938 (Molecular Pharmacology Branch, DTP, NCI, 2023):

System: 556581-035-R-J1-PDC complex spheroid viability
Test: Anticancer human tumor 556581-035-R-J1-PDC patient-derived ovarian carcinoma cell line growth inhibition
Settings: for IC50: curve of first compound; for viability, T/C: stronger effect = lower value
Summary of the method: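 Complex spheroids of tumor cells with HUVEC and human MSCs, exposed to iadademstat combined with other agents. Each agent tested in half-log steps from near clinical Cmax (else 10 microM top), DMSO ≤0.25%.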

[1] = second compound 0.1 µM, first compound 0.0316 µM
[2] = second compound 0.1 µM, first compound 0.1 µM
[3] = second compound 0.1 µM, first compound 0.316 µM
[4] = second compound 0.1 µM, first compound 1 µM
[5] = second compound 0.1 µM, first compound 3.16 µM
[6] = second compound 0.1 µM, first compound 10 µM
[7] = second compound 0.316 µM, first compound 0.0316 µM
[8] = second compound 0.316 µM, first compound 0.1 µM
[9] = second compound 0.316 µM, first compound 0.316 µM
[10] = second compound 0.316 µM, first compound 1 µM
[11] = second compound 0.316 µM, first compound 3.16 µM
[12] = second compound 0.316 µM, first compound 10 µM
[13] = second compound 1 µM, first compound 0.0316 µM
[14] = second compound 1 µM, first compound 0.1 µM
[15] = second compound 1 µM, first compound 0.316 µM
[16] = second compound 1 µM, first compound 1 µM
[17] = second compound 1 µM, first compound 3.16 µM
[18] = second compound 1 µM, first compound 10 µM
[19] = second compound 3.16 µM, first compound 0.0316 µM
[20] = second compound 3.16 µM, first compound 0.1 µM
[21] = second compound 3.16 µM, first compound 0.316 µM
[22] = second compound 3.16 µM, first compound 1 µM
[23] = second compound 3.16 µM, first compound 3.16 µM
[24] = second compound 3.16 µM, first compound 10 µM
[25] = second compound 10 µM, first compound 0.0316 µM
[26] = second compound 10 µM, first compound 0.1 µM
[27] = second compound 10 µM, first compound 0.316 µM
[28] = second compound 10 µM, first compound 1 µM
[29] = second compound 10 µM, first compound 3.16 µM
[30] = second compound 10 µM, first compound 10 µM
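Note: spheroids exposed to agents for seven days.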
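Throughout, for viability, T/C: 100% = DMSO vehicle control wells.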

Compound | IC50 (second compound 0.1 µM) | IC50 (second compound 0.316 µM) | IC50 (second compound 1 µM) | IC50 (second compound 3.16 µM) | IC50 (second compound 10 µM) | viability, T/C [1] | viability, T/C [2] | viability, T/C [3] | viability, T/C [4] | viability, T/C [7] | viability, T/C [8] | viability, T/C [9] | viability, T/C [10] | viability, T/C [13] | viability, T/C [14] | viability, T/C [15] | viability, T/C [16] | viability, T/C [19] | viability, T/C [20] | viability, T/C [21] | also measured
CC(C)c1c(-c2ccccc2)nc2c(C#N)c[nH]n2c1=O + NC1CCC(NC2CC2c2ccccc2)CC1 | > 10000 nM | > 10000 nM | > 10000 nM | 8290 nM | 4840 nM | 93.2% | 94.5% | 90.9% | 87.9% | 87% | 79.1% | 86.3% | 78.3% | 72.2% | 78.2% | 78% | 82.3% | 85.4% | 76.4% | 77.8% | viability, T/C [5]: 83%; viability, T/C [6]: 56.5%; viability, T/C [11]: 71.4%; viability, T/C [12]: 54.4%; viability, T/C [17]: 78.7%; viability, T/C [18]: 53.7%; viability, T/C [22]: 76%; viability, T/C [23]: 68.3%; viability, T/C [24]: 46.2%; viability, T/C [25]: 70%; viability, T/C [26]: 73.8%; viability, T/C [27]: 76%; viability, T/C [28]: 66.8%; viability, T/C [29]: 54%; viability, T/C [30]: 43.7%
CC1COCCN1c1cc(-c2ccnn2C)c2ccnc(-c3ccn[nH]3)c2n1 (stereo not given) + NC1CCC(NC2CC2c2ccccc2)CC1 | 46.2 nM | 27 nM | 25 nM | 21.6 nM | 11.9 nM | 55% | 38.3% | 36.1% | 14.8% | 46.3% | 38.2% | 29.8% | 15.3% | 45.6% | 36.8% | 36.8% | 17.9% | 44.3% | 39.8% | 35.8% | viability, T/C (second compound 0.1 µM, first compound 0.00316 µM): 64.5%; viability, T/C (second compound 0.1 µM, first compound 0.01 µM): 61.4%; viability, T/C (second compound 0.316 µM, first compound 0.00316 µM): 72.9%; viability, T/C (second compound 0.316 µM, first compound 0.01 µM): 58.8%; viability, T/C (second compound 1 µM, first compound 0.00316 µM): 61.1%; viability, T/C (second compound 1 µM, first compound 0.01 µM): 59.7%; viability, T/C (second compound 3.16 µM, first compound 0.00316 µM): 62.5%; viability, T/C (second compound 3.16 µM, first compound 0.01 µM): 54.7%; viability, T/C [22]: 19.2%; viability, T/C (second compound 10 µM, first compound 0.00316 µM): 50%; viability, T/C (second compound 10 µM, first compound 0.01 µM): 55.5%; viability, T/C [25]: 44.8%; viability, T/C [26]: 38%; viability, T/C [27]: 30.5%; viability, T/C [28]: 17.3%
COc1ccc([C@@H](O)c2cc(-c3ncnc4cc(N5CCOCC5)ccc34)c(F)cc2Cl)nn1 + NC1CCC(NC2CC2c2ccccc2)CC1 | 943 nM | 582 nM | 906 nM | 847 nM | 639 nM | 91% | 80.4% | 69% | 47.9% | 80.3% | 81.6% | 60.6% | 39.9% | 76% | 76.1% | 66.9% | 46.6% | 79.5% | 78.6% | 65.3% | viability, T/C [5]: 37.7%; viability, T/C [6]: 32.9%; viability, T/C [11]: 37.7%; viability, T/C [12]: 28.8%; viability, T/C [17]: 35.6%; viability, T/C [18]: 25.6%; viability, T/C [22]: 45.3%; viability, T/C [23]: 37%; viability, T/C [24]: 25.9%; viability, T/C [25]: 63.2%; viability, T/C [26]: 63.2%; viability, T/C [27]: 56.3%; viability, T/C [28]: 44.6%; viability, T/C [29]: 33.3%; viability, T/C [30]: 17%
